Results as given in ChEMBL document CHEMBL3864162, “Discovery of potent inhibitors of the lysophospholipase autotaxin” (Bioorg Med Chem Lett, 2016).

Key:
Autotaxin [1] = molecular target: T1, Autotaxin (Homo sapiens, UniProt Q13822); assay: Inhibition of ATX in human plasma assessed as decrease in hydrolysis of lysophosphatidylcholine by measuring choline release after 24 hrs by horseradish peroxidase/choline oxidase-coupled assay; assay type: cell-free
Autotaxin [2] = molecular target: T1, Autotaxin; assay: Inhibition of human recombinant ATX using Rac-1-Palmitoyl-glycero-3-phosphocholine as substrate incubated for 2 hrs using ADHP fluorogenic peroxidase substrate by horseradish peroxidase/choline oxidase-coupled assay
[3] = Intrinsic clearance in CD1 mouse liver microsomes assessed per gram of liver at 1 uM in presence of NADPH regenerating system measured up to 45 mins by UPLC/MS/MS analysis; assay type: ADME; details: 0.75 h
[4] = Intrinsic clearance in human liver microsomes assessed per gram of liver at 1 uM in presence of NADPH regenerating system measured up to 45 mins by UPLC/MS/MS analysis; assay type: ADME; details: 0.75 h
[5] = Half life in CD1 mouse blood at 1 mg/kg, iv administered as bolus dose measured up to 7 hrs by UPLC/MS/MS spectrometry analysis; assay type: ADME, organism-based
[6] = Volume of distribution at steady state in CD1 mouse at 1 mg/kg, iv administered as bolus dose measured up to 7 hrs by UPLC/MS/MS spectrometry analysis; assay type: ADME, organism-based; details: in vivo, read-out: Vdss
[7] = Blood clearance in CD1 mouse at 1 mg/kg, iv administered as bolus dose measured up to 7 hrs by UPLC/MS/MS spectrometry analysis; assay type: ADME, organism-based

| Compound | IC50 (Autotaxin [1]) | IC50 (Autotaxin [2]) | CLH [3] | CLH [4] | half-life [5] | Vd [6] | clearance [7] |
| --- | --- | --- | --- | --- | --- | --- | --- |
| COc1ccc(Cn2c(CCC(=O)N[C@H](C)c3ccccc3)nc3cccnc32)cc1 | 8500 nM | – | – | – | – | – | – |
| O=C(CCc1nc2cccnc2n1Cc1ccccc1)NCc1ccccn1 | – | 11000 nM | – | – | – | – | – |
| COc1ccc(Cn2c(CCC(=O)N[C@@H](C)c3ccc(Cl)cc3)nc3cccnc32)cc1 | 215 nM | – | – | – | – | – | – |
| COc1cccc(CNC(=O)CCc2nc3cccnc3n2Cc2ccccc2)c1 | – | 2970 nM | – | – | – | – | – |
| C[C@H](NC(=O)OCc1nc2cccnc2n1Cc1ccc(F)cc1)c1ccc(F)cc1 | 3290 nM | 366 nM | 21.8 mL/min/g | – | – | – | – |
| C[C@H](NC(=O)COc1nc2cccnc2n1Cc1ccc(F)cc1)c1ccc(F)cc1 | 821 nM | – | 15.6 mL/min/g | – | – | – | – |
| O=C(CCc1nc2cccnc2n1Cc1ccccc1)NCc1cccc(F)c1 | – | 1250 nM | – | – | – | – | – |
| O=C(CCc1nc2cccnc2n1Cc1ccccc1)NCC1CCCCC1 | 9700 nM | 444 nM | 30.8 mL/min/g | 17.4 mL/min/g | – | – | – |
| O=C(CCc1nc2cccnc2n1Cc1ccccc1)NCc1ccsc1 | – | 2430 nM | – | – | – | – | – |
| C[C@H](NC(=O)C[S+]([O-])c1nc2cccnc2n1Cc1ccc(OC(F)(F)F)cc1)c1ccc(F)cc1 (stereo in doubt; 26b) | 207 nM | 178 nM | 19.8 mL/min/g | – | – | – | – |
| O=C(CCc1nc2cccnc2n1Cc1ccccc1)NCc1ccc(Cl)cc1 | 5800 nM | – | 15.3 mL/min/g | – | – | – | – |
| O=C(CCc1nc2cccnc2n1Cc1ccc(F)cc1)N[C@@H](CO)c1ccc(Cl)cc1 | 26 nM | 5 nM | 4.4 mL/min/g | – | 9.6 min | 0.2 L/kg | 73 mL/min/kg |
| C[C@H](NC(=O)C[S+]([O-])c1nc2cccnc2n1Cc1ccc(OC(F)(F)F)cc1)c1ccc(F)cc1 (stereo in doubt; 26a) | 178 nM | 10 nM | 28.6 mL/min/g | – | 13.2 min | 0.2 L/kg | 82 mL/min/kg |
| CS(=O)(=O)c1ccc(CNC(=O)CCc2nc3cccnc3n2Cc2ccccc2)cc1 | – | 6770 nM | – | – | – | – | – |
| C[C@H](NC(=O)CCc1nc2cccnc2n1Cc1ccc(C(F)(F)F)cc1)c1ccc(Cl)cc1 | 16 nM | – | 26.5 mL/min/g | – | 19.8 min | 0.88 L/kg | 72 mL/min/kg |
| C[C@H](NC(=O)CCc1nc2cccnc2n1Cc1ccc(OC(F)F)cc1)c1ccc(Cl)cc1 | 44 nM | 2 nM | 52.8 mL/min/g | – | 22.2 min | 0.4 L/kg | 62 mL/min/kg |
